The target in this assay is T1, human CB2R (Homo sapiens, UniProt P34972).
T1 construct: host or cells: CHO cells
T1 sequence (P34972 whole entry): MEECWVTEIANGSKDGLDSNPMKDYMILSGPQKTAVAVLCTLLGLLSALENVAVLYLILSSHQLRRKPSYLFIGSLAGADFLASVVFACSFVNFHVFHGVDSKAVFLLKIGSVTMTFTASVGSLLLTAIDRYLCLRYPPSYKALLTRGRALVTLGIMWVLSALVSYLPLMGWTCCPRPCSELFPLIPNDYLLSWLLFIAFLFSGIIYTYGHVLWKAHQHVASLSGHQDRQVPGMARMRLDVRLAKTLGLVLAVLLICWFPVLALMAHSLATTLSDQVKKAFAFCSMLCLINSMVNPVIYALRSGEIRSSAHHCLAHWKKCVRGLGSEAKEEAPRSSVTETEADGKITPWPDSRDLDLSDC
Briefly: CB2R mediated modulation of cAMP synthesis. It counts as cell-based. Conditions: qualitative statement; found 'through the use of the above described assays'; CHO cells expressing human CB2R, forskolin-stimulated cAMP. As to the method: B. CB2R Mediated Modulation of cAMP Synthesis:
CHO cells expressing human CB2R (Euroscreen) were plated at a density of 5000 cells per well in 384 well plates and incubated overnight at 37° C. After removing the media, the cells were treated with test compounds diluted in stimulation buffer containing 1 mM IBMX, 0.25% BSA and 10 uM Forskolin. The assay was incubated for 30 minutes at 37° C. Cells were lysed and the cAMP concentration was measured using DiscoverX-XS cAMP kit, following the manufacturer's protocol. In this setting, agonists will decrease forskolin induced production of cAMP while inverse agonists will further increase forskolin induced production of cAMP. EC50 of agonists were calculated as follows. The maximal amount of cAMP produced by forskolin compared to the level of cAMP inhibited by 1 uM CP55940 is defined as 100%. The EC50 value of each test compound was determined as the concentration at which 50% of the forskolin-stimulated cAMP synthesis was inhibited. Data was analyzed using a four-parameter logistic model. (Model 205 of XLfit 4.0).
For `Cc1ccc(C)c(Nc2ccc(CN(C)CC(O)c3ccccc3)cc2)c1` (centres unmarked) [Example 1, 2-{[4-(2,5-Dimethyl-phenylamino)-benzyl]-methyl-amino}-1-phenyl-ethanol], the agonistic activity result is given as “agonistic activity”.
For `CN(Cc1ccc(Nc2ccccc2)cc1)CC(O)c1ccccc1` (centres unmarked) [Example 2, 2-[methyl-(4-phenylamino-benzyl)-amino]-1-phenyl-ethanol], the agonistic activity entry is listed as “agonistic activity”.
The entry for `Cc1ccc(Cl)c(Nc2ccc(CN(C)CC(O)c3ccccc3)cc2)c1` (centres unmarked) [Example 3, 2-{[4-(2-chloro-5-methyl-phenylamino)-benzyl]-methyl-amino}-1-phenyl-ethanol] is “agonistic activity”.
Consider `CN(Cc1ccc(Nc2ccccc2Cl)cc1)CC(O)c1ccccc1` (centres unmarked) [Example 4, 2-{[4-(2-chloro-phenylamino)-benzyl]-methyl-amino}-1-phenyl-ethanol], for which the agonistic activity result is recorded as “agonistic activity”.
`CN(Cc1ccc(Nc2ccccc2Cl)cc1)C[C@H](O)c1ccccc1` [Example 5, (R)-2-{[4-(2-chloro-phenylamino)-benzyl]-methyl-amino}-1-phenyl-ethanol]: the agonistic activity entry is recorded as “agonistic activity”.
The entry for `Cc1ccccc1Nc1ccc(CN(C)CC(O)c2ccccc2)cc1` (centres unmarked) [Example 6, 2-[methyl-4(o-tolylamino-benzyl)-amino]-1-phenyl-ethanol] is “agonistic activity”.
The same measure for `Cc1ccc(C)c(Nc2ccc(CN(C)CC(O)c3ccccc3)cn2)c1` (centres unmarked) [Example 7, 2-{[6-(2,5-dimethyl-phenylamino)-pyridin-3-ylmethyl]-methyl-amino}-1-phenyl-ethanol]: “agonistic activity”; for `Cc1ccc(Cl)c(Nc2ccc(CN(C)CC(O)c3ccccc3)cn2)c1` (centres unmarked) [Example 8, 2-{[6-(2-chloro-5-methyl-phenylamino)-pyridin-3-ylmethyl]-methyl-amino}-1-phenyl-ethanol]: “agonistic activity”; for `Cc1ccc(Cl)cc1Nc1ccc(CN(C)CC(O)c2ccccc2)cn1` (centres unmarked) [Example 9, 2-{[6-(5-chloro-2-methyl-phenylamino)-pyridin-3-ylmethyl]-methyl-amino}-1-phenyl-ethanol]: “agonistic activity”.
The same measure for `CN(Cc1ccc(Nc2ccccc2Cl)nc1)CC(O)c1ccccc1` (centres unmarked) [Example 10, 2-{[6-(2-chloro-phenylamino)-pyridin-3-ylmethyl]-methyl-amino}-1-phenyl-ethanol]: “agonistic activity”.
Consider `Cc1ccccc1Nc1ccc(CN(C)CC(O)c2ccccc2)cn1` (centres unmarked) [Example 11, 2-[methyl-(6-o-tolylamino-pyridin-3-ylmethyl)-amino]-1-phenyl-ethanol], for which the agonistic activity result was “agonistic activity”.
Take `CN(Cc1ccc(Nc2ccccc2)cc1)C[C@H](O)c1ccccc1` [Example 15, (R)-2-[Methyl-(4-phenylamino-benzyl)-amino]-1-phenyl-ethanol]: the agonistic activity entry is “agonistic activity”.
The same measure for `CN(Cc1ccc(S(=O)(=O)c2ccccc2)cc1)C[C@H](O)c1ccccc1` [Example 17, (R)-2-[(4-Benzenesulfonyl-benzyl)-methyl-amino]-1-phenyl-ethanol]: “agonistic activity”; for `CN(Cc1ccc(Oc2ccccc2)cc1)C[C@H](O)c1ccccc1` [Example 19, (R)-2-[Methyl-(4-phenoxy-benzyl)-amino]-1-phenyl-ethanol]: “agonistic activity”; for `CN(Cc1cnc2ccccc2c1)C[C@H](O)c1ccccc1` [Example 20, (R)-2-(Methyl-quinolin-3-ylmethyl-amino)-1-phenyl-ethanol]: “agonistic activity”.
Turning to `CN(Cc1ccc(Oc2ccccc2)nc1)C[C@@H](O)c1ccccc1` [Example 21, (S)-2-[Methyl-(6-phenoxy-pyridin-3-ylmethyl)-amino]-1-phenyl-ethanol], the agonistic activity entry is given as “agonistic activity”.
The same measure for `O[C@H](CNCc1cnc2ccccc2c1)c1ccccc1` [Example 22, (S)-1-Phenyl-2-[(quinolin-3-ylmethyl)-amino]-ethanol]: “agonistic activity”.

These data come from patent US20090275611A1, “Compounds Which Modulate The CB2 Receptor” (BOEHRINGER INGELHEIM INTERNATIONAL GMBH, priority 2006, published 2009).
